Values quoted from earlier work, collected in patent US10702482B2, “Slow-release solid oral compositions” (GNOSIS SPA, priority 2013, dated 2020).

C[S+](CC[C@H](N)C(=O)O)C[C@H]1O[C@@H](n2cnc3c(N)ncnc32)[C@H](O)[C@@H]1O (stereo partly drawn) [SAMe, S-adenosyl-L-methionine]
oral bioavailability (in words): rather poor oral bioavailability
